{"source": "paper PMC5238392", "about": "“Origin of anti-tumor activity of the cysteine-containing GO peptides and further optimization of their cytotoxic properties” (Scientific Reports, 2017)", "key": {"ZR-75-1 cell line": {"system": "ZR-75-1 cell line", "experiment": "H2DCFDA intracellular ROS measurement, ZR-75-1", "format": "cell-based, human", "conditions": "10 μM, 30 min incubation, control 100 ± 11, mean and SD, below statistical significance", "description": "Having established these premises, we repeated the measurements using the ROS-sensitive probe H2DCFDA instead of DCFDA. We have observed small, but statistically significant difference between the HT-1080 cells treated by GO-203 and control cells. Specifically, 30 min after application of the peptide the fluorescence signal from the treated cells was ca. 20% lower than the control, 82 ± 6 vs. 100 ± 7 (arbitrary units). The drop in fluorescence from cells that have been treated with GO-203 should be unequivocally attributed to the decreased level of ROS. The effect is small and unlikely to be the source of GO-203 cytotoxic activity. […] The detected drop in ROS level was below the level of statistical significance, 98 ± 3 vs. 100 ± 11 (see Fig. S3). […]\nThe cells were seeded into 35-mm Nunc culture dishes (Thermo Scientific, USA) at 1.2 × 10^5 cells per dish and allowed to attach for 24 h. […] After that GO-203 was added directly to the suspension and cell fluorescence was measured by flow cytometry at multiple time points during the following 2 hours. […] Cell fluorescence was then immediately measured by flow cytometry. […]\nCell fluorescence was measured using CytoFLEX (Beckman Coulter, USA) flow cytometer equipped with 3 lasers (405, 488 and 633 nm). […] Mean fluorescence intensity from 10,000 cells was acquired. […]"}, "HT-1080 cells": {"system": "HT-1080 cells", "experiment": "Caspase 3/7 activation assay (CellEvent / SYTOX), HT-1080", "format": "cell-based, human", "conditions": "10 μM, 4 h, Fig. 4B", "description": "A complementary perspective on GO-203-induced apoptosis is provided by the caspase 3/7 activation assay, Fig. 4. In both HT-1080 and ZR-75-1, the data offer a clear view of the early and late apoptotic populations. The time dependence illustrated in Fig. 4E,F confirms that the onset of apoptosis occurs sufficiently rapidly in both cell lines – by the time of flow-cytometry observations the system has already approached the steady state. In the literature there is some evidence that activation of executioner caspases may precede the translocation of phosphatidylserine to the outer leaf of the membrane. While this could be in principle relevant for comparison between the Annexin V assay and caspase activation assay, one should bear in mind that in our case both assays offer a snapshot of a fairly advanced apoptotic process.\nFigure 4 GO-203-induced apoptosis in HT-1080 and ZR-75-1 cells as assessed by the double staining with CellEvent caspase-3/7 green detection reagent and vital dye SYTOX. (A–D) Flow cytometry histograms for the cells incubated for 4 h with 10 μM of GO-203 and the untreated (control) cells. (E–G) Apoptotic fractions in the GO-203-treated and untreated (control) cells as a function of incubation time and GO-203 concentration. TEXT PRINTED IN THE PICTURE: (B) GO-203: HT-1080: IV.(0.11 %); HT-1080: III.(64.49 %); HT-1080: I.(12.21 %); HT-1080: II.(23.20 %) | (D) GO-203: ZR-75-1: IV.(0.40 %); ZR-75-1: III.(35.18 %); ZR-75-1: I.(28.95 %); ZR-75-1: II.(35.47 %)\nThe adherent cells were rinsed with PBS, harvested using trypsin-EDTA solution and suspended in the growth medium. To analyze cell cycle phase distribution, 200 μg/ml of saponin (Fluka, USA), 250 μg/ml RNase A, and 50 μg/ml of propidium iodide (both Sigma-Aldrich, USA) were added to each sample tube, thus obtaining DNA stain buffer. After 1 h incubation at room temperature, the samples were analyzed by flow cytometry. To detect apoptosis by flow cytometry, CellEvent Caspase-3/7 Green Flow Cytometry Assay Kit (Thermo Fisher Scientific, USA) and Annexin-V FITC conjugate (BD Biosciences, USA) in combination with propidium iodide have been employed following the manufacturer’s protocols.\nCell fluorescence was measured using CytoFLEX (Beckman Coulter, USA) flow cytometer equipped with 3 lasers (405, 488 and 633 nm). Cells were gated on FSC/SSC to remove debris. Mean fluorescence intensity from 10,000 cells was acquired."}}, "data": [{"substance": "[R]9CQCRRKN [GO-203, in clinical trials]", "values": [{"measurement": "H2DCFDA fluorescence signal (ROS level)", "setting": "ZR-75-1 cell line", "result": "98 ± 3", "unit": "arbitrary units"}, {"measurement": "quadrant I fraction (caspase-3/7 / SYTOX)", "setting": "HT-1080 cells", "result": 12.21, "unit": "%"}, {"measurement": "quadrant II fraction (caspase-3/7 / SYTOX)", "setting": "HT-1080 cells", "result": 23.20, "unit": "%"}, {"measurement": "quadrant III fraction (caspase-3/7 / SYTOX)", "setting": "HT-1080 cells", "result": 64.49, "unit": "%"}, {"measurement": "quadrant IV fraction (caspase-3/7 / SYTOX)", "setting": "HT-1080 cells", "result": 0.11, "unit": "%"}]}]}
